This note sets out measurements from patent publication US20240116920A1 (priority 2020, published 2024).

The target of one experiment is T1, JAK3 (Homo sapiens, UniProt P52333).
T1 sequence (P52333 1-1124): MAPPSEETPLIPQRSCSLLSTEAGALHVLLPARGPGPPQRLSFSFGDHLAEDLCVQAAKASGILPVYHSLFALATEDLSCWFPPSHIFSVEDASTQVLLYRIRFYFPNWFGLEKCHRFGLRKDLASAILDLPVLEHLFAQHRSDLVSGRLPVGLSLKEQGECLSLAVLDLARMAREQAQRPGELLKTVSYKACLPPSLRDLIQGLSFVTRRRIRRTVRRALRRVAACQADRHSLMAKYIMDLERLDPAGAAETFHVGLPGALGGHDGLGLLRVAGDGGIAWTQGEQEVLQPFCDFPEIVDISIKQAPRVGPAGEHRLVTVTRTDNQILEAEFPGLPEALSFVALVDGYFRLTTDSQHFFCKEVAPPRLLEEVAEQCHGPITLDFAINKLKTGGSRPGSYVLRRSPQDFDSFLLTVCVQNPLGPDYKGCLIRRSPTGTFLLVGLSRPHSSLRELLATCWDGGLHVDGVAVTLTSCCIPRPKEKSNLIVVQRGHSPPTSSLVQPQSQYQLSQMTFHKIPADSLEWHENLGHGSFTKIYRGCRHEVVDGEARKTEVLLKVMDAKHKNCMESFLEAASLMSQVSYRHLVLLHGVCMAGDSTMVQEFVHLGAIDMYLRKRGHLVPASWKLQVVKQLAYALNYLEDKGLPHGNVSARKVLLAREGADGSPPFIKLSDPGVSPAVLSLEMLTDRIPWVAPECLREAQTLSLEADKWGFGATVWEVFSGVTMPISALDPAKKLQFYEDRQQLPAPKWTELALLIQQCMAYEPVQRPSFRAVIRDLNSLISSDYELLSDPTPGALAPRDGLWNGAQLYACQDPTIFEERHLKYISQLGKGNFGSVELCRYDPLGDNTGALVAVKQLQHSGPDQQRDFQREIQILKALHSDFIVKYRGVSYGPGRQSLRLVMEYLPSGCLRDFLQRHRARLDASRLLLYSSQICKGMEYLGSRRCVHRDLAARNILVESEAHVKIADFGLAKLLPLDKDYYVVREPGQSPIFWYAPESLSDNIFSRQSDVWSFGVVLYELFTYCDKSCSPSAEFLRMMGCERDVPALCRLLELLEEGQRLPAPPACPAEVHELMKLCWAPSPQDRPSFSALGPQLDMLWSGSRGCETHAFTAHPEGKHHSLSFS
Put plainly: biochemical.

For a further experiment, the target named is JAK2 (Homo sapiens, UniProt O60674). Put plainly: biochemical.
Sequence of JAK2 (O60674 whole entry): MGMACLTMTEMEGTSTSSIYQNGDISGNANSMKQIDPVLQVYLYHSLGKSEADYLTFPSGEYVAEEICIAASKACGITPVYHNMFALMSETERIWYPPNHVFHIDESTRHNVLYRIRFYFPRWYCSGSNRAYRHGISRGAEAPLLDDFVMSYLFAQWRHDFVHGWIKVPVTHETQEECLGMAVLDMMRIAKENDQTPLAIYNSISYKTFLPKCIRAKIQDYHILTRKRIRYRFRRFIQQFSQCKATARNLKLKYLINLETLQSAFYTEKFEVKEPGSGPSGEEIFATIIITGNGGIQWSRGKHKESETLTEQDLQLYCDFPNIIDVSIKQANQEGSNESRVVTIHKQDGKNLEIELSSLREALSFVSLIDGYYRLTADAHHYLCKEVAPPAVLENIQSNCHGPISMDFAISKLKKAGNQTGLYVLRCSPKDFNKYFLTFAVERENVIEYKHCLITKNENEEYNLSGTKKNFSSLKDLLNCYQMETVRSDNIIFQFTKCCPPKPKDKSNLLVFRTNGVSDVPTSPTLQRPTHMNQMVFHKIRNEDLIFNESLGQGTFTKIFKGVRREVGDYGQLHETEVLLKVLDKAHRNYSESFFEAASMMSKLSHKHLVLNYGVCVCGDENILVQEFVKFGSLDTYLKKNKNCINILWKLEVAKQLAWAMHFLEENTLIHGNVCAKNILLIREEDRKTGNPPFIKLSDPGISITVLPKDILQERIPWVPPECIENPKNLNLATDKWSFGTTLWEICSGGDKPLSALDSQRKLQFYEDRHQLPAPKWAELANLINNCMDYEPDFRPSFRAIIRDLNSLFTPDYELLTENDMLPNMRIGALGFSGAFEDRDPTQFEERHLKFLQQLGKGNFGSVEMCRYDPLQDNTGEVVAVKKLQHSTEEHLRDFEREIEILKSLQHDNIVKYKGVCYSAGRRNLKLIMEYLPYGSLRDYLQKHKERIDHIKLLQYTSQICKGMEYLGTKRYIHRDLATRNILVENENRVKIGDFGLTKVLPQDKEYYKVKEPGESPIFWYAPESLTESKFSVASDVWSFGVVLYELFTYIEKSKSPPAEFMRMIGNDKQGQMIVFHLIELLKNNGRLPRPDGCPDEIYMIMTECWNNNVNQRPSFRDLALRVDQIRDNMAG
The next experiment has as its target TYK2 (Homo sapiens, UniProt P29597). As to the kind of experiment: biochemical.
The subject of another experiment is JAK1/STAT3 signaling. Put plainly: Immunobit cell-based pSTAT3 and pSTAT5 immunoassay. Details: species or system human.
Experiment [1] relates to LX-2 human hepatic stellate cells. As to the kind of experiment: TGF-β-induced LX-2 cell proliferation (CCK8). It counts as cell-based.

Sequence of TYK2 (P29597 whole entry): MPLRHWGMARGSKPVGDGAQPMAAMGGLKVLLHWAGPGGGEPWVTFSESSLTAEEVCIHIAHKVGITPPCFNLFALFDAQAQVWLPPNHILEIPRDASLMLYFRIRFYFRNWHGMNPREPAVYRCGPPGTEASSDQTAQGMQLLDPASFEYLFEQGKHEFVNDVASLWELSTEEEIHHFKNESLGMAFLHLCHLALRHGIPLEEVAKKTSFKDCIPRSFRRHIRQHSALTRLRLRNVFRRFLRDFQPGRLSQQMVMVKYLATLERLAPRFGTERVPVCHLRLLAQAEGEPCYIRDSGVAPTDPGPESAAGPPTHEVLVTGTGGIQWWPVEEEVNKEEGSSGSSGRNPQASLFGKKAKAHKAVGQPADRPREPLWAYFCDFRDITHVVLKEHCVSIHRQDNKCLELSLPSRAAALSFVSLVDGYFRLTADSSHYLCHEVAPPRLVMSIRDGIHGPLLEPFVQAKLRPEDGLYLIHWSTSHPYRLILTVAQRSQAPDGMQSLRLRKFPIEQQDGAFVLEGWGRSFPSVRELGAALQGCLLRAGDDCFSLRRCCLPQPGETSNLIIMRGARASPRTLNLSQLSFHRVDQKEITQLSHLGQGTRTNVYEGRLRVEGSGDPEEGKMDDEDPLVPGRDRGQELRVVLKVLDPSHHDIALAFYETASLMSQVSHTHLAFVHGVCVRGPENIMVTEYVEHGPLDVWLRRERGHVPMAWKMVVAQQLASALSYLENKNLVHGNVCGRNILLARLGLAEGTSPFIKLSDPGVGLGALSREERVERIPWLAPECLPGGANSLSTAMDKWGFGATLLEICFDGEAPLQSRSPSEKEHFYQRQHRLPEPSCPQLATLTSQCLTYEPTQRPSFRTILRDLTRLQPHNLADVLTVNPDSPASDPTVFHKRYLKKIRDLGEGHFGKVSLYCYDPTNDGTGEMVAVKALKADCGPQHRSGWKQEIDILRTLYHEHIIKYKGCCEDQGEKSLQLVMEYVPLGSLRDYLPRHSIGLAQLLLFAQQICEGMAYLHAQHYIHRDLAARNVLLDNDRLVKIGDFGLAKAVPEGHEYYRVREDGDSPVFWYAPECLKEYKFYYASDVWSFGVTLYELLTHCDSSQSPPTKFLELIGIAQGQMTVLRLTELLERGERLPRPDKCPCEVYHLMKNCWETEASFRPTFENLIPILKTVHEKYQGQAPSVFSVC

Turning to `CNC(=O)c1cnc2[nH]ccc2c1N[C@@H]1CCN(Cc2cnc(C(F)(F)F)nc2)[C@H](C)C1` (racemic) [compound 49], the figures for the IC50 against JAK3, against JAK2 and on TYK2 were 8.39 nM, 8.78 nM and 36.9 nM, respectively.
With `O=C(Nc1nc2cccc(-c3ccc(CN4CCS(=O)(=O)CC4)cc3)n2n1)C1CC1` [filgotinib], in the experiment on JAK1/STAT3 signaling, the “effect on JAK/STAT signaling (pSTAT3, pSTAT5)” value was “reduced pSTAT3 and pSTAT5, but with less effect than 31g”.
With `COC(=O)c1ccc2c(c1)NC(=O)/C2=C(\Nc1ccc(N(C)C(=O)CN2CCN(C)CC2)cc1)c1ccccc1` [nintedanib], in experiment [1] (LX-2, TGF-β-induced, CCK8), the “inhibitory effect on LX-2 proliferation induced by TGF-β” value is “dose-dependent inhibitory effects”. For the same compound, in experiment [1] (incubation with TGF-β for 72 h), the “inhibitory effect on LX-2 cell growth versus tofacitinib or filgotinib” value is reported as “superior to those of tofacitinib or filgotinib”. The “effect on JAK/STAT signaling (pSTAT3, pSTAT5)” value with JAK1/STAT3 signaling is recorded as “did not affect the JAK/STAT pathway”.
